The nature of this data set: Solubility in various solvents at T=25° C. Type of data set: physicochemical. The source says:
Excellent solubility of the complex is found in many common organic solvents, even in polar protic solvents, such as ethanol and ethanol/water mixtures. As comparison in accordance with the prior art, the solubility of fac-tris[2-(2-pyridinyl-κN)phenyl-κC]iridium(III) (IrPPy) is indicated.

As to “fac-Tris[2-(2-pyridinyl-κN)-5-(tri-n-butylphosphonium)phenyl)-κC]iridium(III) tribromide [Example 1]”, the Solubility result was “unlimited” (Acetone); “unlimited” (Chloroform); “unlimited” (DMF); “unlimited” (DMSO); “unlimited” (Dichloromethane); 134.0 mg/mL (Ethanol). Moreover, the Solubility is, setting by setting: (Hexane) more than 1.0 mg/mL; (NMP) “unlimited”; (Toluene) “unlimited”; (Water) 11.5 mg/mL; (Water/ethanol (1:1, v,v)) 43.0 mg/mL.

In general, Solubility refers to the dissolved amount per volume that the medium holds.

For the origin of these results see patent US9000166B2, “Metal complexes” (Merck Patent GmbH, priority 2005, dated 2015).
